# Measurements reported in US20160045498A1, “METHODS OF TREATING DISEASES CHARACTERIZED BY EXCESSIVE WNT SIGNALLING” (THE WALTER AND ELIZA HALL INSTITUTE OF MEDICAL RESEARCH, priority 2013, published 2016).
# What was measured:
# [1] = target: TYK2 (Homo sapiens, UniProt P29597); conditions: WO2012062704; cited from earlier work
# [2] = test system: SW480^APC cells; experiment: Soft agar colony growth assay, SW480APC; format: cell-based, human; conditions: 10 days, AZD1480 1 μM, S3I-201 50 μM, IL11 10 ng/ml
# Method: (§1) e Photograph of SW480 and SW480^APC CRC cells grown for 10 days under colony forming conditions in soft agar in the presence of vehicle or 1 μM of Jak2 inhibitor AZD1480 (Jak2i) (Scale bar=200 μm)
# (§2) f Colony forming capacity of an isogenic pair of SW480 cells scored 10 days after the indicated treatment. (*p≦0.04; triplicate cultures and repeated).
# (§3) SW480 and SW480^APC cells (Faux et al., 2004) were seeded in 2 ml of RPMI media supplemented with 10% FBS and 1% penicillin/streptomycin in 35 mm culture dishes at a density of 2×10^5 cells per dish. Three days later cultures were exposed to AZD1480 (1 μM) for 15 min. Co-immunofluorescence was then performed with antibodies to rabbit phospho-Stat3 (Tyr705, Santa Cruz #9134s, 1:200 dilution) and mouse β-catenin (Transduction Laboratories, 1:400). Colony formation assays of SW480 cells in soft agar were performed as described (Faux et al., 2004) in the presence of either AZD1480, (1 μM), the Stat3 inhibitor S3I-201 (Biovision, 50 μM) or recombinant human IL11 (Genetics Institute, 10 ng/ml). All experiments were performed in triplicates and repeated at least once. Vehicle was methylcellulose.
# [3] = test system: SW480 cells; experiment: Soft agar colony growth assay, SW480; format: cell-based, human; conditions: SW480, 10 days; AZD1480 1 μM, S3I-201 50 μM, IL11 10 ng/ml
# Method: as §1, §2, §3
# [4] = test system: intestinal organoids; experiment: Organoid culture, crypt formation; format: cell-based, mice; conditions: S3I-201 7.5 μM from day 3 after seeding
# Method: […] Arrows point to budding crypt-like structures. Scale bar=50 μm.
# d Enumeration of crypts on individual organoids from experiment illustrated in FIG. 1c. (*p≦0.018; Two-sided t-test on triplicate cultures and repeated).
# Crypts from small intestines were harvested, washed and were resuspended at 2000 crypts/ml of matrigel (BD Biosciences) and 50 μL was dispensed in each well of a 24-well plate. Once the matrigel had set, medium was added and the organoids cultured for seven days as described (Sato et al., 2009). Experiments were performed in triplicates and repeated.
# Organoid cultures were imaged on a Nikon Ti-E microscope using DIC contrast with a 10x PlanApo NA0.3 objective. A focal stack of images was collected (10 μm apart) and processed through the Best Focus function of MetaMorph v7.7.7 (Molecular Devices, USA) to generate the final image of individual Organoids.
# [5] = test system: intestinal tumours; experiment: Intestinal tumour burden after tamoxifen-induced conditional Apc deletion in Lgr5CreERT2;Apcfl/fl mice; format: in vivo; conditions: Lgr5CreERT2;Apcfl/fl mice, CYT387 30 mg/kg oral gavage
# Method: e Quantification of intestinal tumour burden of mice using the Metamorph analysis tool (Barker et al., 2009) after tamoxifen-induced conditional Apc deletion in adult Lgr5^CreERT2;Apc^fl/fl mice that also received daily administration of AZD1480 (30 mg/kg) or vehicle during this time. (*p≦0.04; n=3 mice).
# d Intestinal tumour burden 5 weeks after tamoxifen-induced conditional Apc deletion in adult Lgr5^CreERT2;Apc^fl/fl mice that also received daily administration of AZD1480 (Jak2i; 30 mg/kg) or vehicle during this time. Higher magnifications of the boxed areas are provided and arrows point to tubular adenomas whilst arrowheads point to micro-adenomas. Scale bars=1 mm.
# 10 week old Lgr5CreERT2;Apcfl/fl mice received four i.p injections with tamoxifen (10 mg/ml; 300 ul, 200 ul, 200 ul, 200 ul) over four consecutive days. Three days after the last injection, mice received daily oral gavages with either vehicle (tap water, pH 2.0) or CYT387 (30 mg/kg) for four weeks. Regime was 5 days treatment followed by 2 days off treatment.
# Hematoxilin and Eosin-stained sections were scanned using an Aperio ScanScope XT (Aperio, USA) pathology slide scanner with a 20x PlanApo NA0.6 objective and areas of interest were extracted using Aperio ImageScope software v11.1.2.760. The area of individual tumors was outlined using MetaMorph v7.7.7 and standardized against the entire length of the colon section as described (Barker et al., 2009).
# [6] = test system: SW480^APC cells; experiment: p-STAT3 immunofluorescence and SOCS3 RT-qPCR in SW480APC cells; format: cell-based, human; conditions: RT-qPCR, AZD1480 1 μM, IL11 10 ng/ml
# Method: (§4) d Immunofluorescence staining for β-CATENIN or tyrosine-705 phosphorylated STAT3 in an isogenic pair of SW480 cells grown in the presence of 1 μM AZD1480 (Jak2i) or vehicle. SW480 cells are APC mutant and lack expression of functional APC protein, while SW480^APC cells have been reconstituted to express wild-type APC. Scale bar=20 μm.
# (§5) g RT-qPCR expression analysis for the STAT3 target gene SOCS3 in SW480 and SW480^APC CRC cells grown for 10 days under colony forming conditions in soft agar in the presence of the indicated treatment. Expression in the vehicle-treated cultures was arbitrarily set as 1. (*p≦0.04; triplicate cultures in each of two repeats).
# as §3
# (§6) Gene expression analysis by RT-qPCR was performed using the SybrGreen method (ABI) as described previously (Phesse et al., 2008). Fold change was calculated using the 2^−ΔΔCT method (Livak et al., 2001). Protein expression was analysed by Western blot by transferring SDS-PAGE separated protein lysates to nitrocellulose membrane and blocked either in 5% non-fat milk powder and probed with antibodies detecting p16 (Santa Cruz; #sc-467), Bmi1 (Millipore #[…]), Actin (Sigma; #A2066) or Gapdh (Santa Cruz; #sc-69778). All antibodies were diluted 1:1000 in BSA or non-fat milk powder and incubations were performed overnight.
# [7] = test system: SW480 cells; experiment: p-STAT3 / β-CATENIN immunofluorescence and SOCS3 RT-qPCR in SW480 cells; format: cell-based, human; conditions: SW480, RT-qPCR; AZD1480 1 μM, IL11 10 ng/ml
# Method: as §4, §5, §3, §6
# [8] = test system: IECs; experiment: RT-qPCR of IECs after i.p. injection of recombinant IL-11; format: in vivo; conditions: gp130^F/F mice, 30 minutes after i.p. 5 μg recombinant IL-11
# Method: a RT-qPCR expression analysis for Socs3 and Bmi1 in IECs isolated from gp130^F/F mice 30 minutes after an i.p. injection of 5 μg of recombinant IL-11 (p=0.04; n=3 mice).
# as §6
# Chain of TYK2 (P29597 whole entry, species assumed): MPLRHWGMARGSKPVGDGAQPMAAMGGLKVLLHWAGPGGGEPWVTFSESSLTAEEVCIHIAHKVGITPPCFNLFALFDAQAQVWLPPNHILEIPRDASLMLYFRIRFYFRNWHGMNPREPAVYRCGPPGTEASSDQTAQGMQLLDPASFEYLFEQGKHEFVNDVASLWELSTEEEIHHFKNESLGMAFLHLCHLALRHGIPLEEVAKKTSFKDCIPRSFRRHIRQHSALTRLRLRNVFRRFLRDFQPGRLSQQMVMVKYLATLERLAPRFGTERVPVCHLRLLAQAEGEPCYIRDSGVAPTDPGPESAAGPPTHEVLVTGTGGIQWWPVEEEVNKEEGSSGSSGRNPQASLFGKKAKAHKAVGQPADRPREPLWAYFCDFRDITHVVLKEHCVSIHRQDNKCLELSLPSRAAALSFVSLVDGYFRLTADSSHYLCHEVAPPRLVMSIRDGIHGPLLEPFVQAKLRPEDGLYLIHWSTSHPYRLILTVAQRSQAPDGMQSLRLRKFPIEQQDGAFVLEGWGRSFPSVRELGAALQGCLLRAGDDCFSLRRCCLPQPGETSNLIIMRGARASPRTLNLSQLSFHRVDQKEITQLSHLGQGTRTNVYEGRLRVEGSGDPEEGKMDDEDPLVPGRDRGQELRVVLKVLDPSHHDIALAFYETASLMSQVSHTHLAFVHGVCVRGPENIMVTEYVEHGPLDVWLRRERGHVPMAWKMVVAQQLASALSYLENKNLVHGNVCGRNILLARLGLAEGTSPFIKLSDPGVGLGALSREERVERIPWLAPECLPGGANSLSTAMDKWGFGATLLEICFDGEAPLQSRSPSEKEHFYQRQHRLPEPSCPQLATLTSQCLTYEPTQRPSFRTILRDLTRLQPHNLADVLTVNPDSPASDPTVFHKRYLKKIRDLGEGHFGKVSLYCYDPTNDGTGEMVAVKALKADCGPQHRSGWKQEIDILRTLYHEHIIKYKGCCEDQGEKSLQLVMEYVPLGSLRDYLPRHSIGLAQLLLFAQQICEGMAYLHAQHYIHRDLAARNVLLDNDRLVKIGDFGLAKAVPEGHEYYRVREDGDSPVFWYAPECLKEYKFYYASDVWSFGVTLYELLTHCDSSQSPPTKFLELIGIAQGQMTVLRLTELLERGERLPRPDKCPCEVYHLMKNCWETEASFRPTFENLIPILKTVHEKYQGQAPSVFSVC
molecule,measurement,setting,value
COc1ccc(-c2nc(NC(=O)C3CC3)ncc2C)cc1F,selectivity for TYK2,[1],> 100 fold
Cc1ccc(S(=O)(=O)OCC(=O)Nc2ccc(C(=O)O)c(O)c2)cc1 [S3I-201],colony formation in soft agar,[2],did not affect colony formation
same,colony formation in soft agar,[3],strongly impaired
same,crypt formation of organoids,[4],reduced
N#CCNC(=O)c1ccc(-c2ccnc(Nc3ccc(N4CCOCC4)cc3)n2)cc1 [CYT387],morphology of lesions,[5]; 4 weeks,retained the morphology of the growth arrested microadenomas
same,intestinal tumour burden (histological assessment),"[5]; 4 weeks (5 days on, 2 off), vehicle: large tubular adenomas",few small emerging lesion
"IL-11: recombinant gp130 cytokine IL-11 (Genetics Institute) (protein, UniProt P20809 22-199, looked up) Interleukin-11: PGPPPGPPRVSPDPRAELDSTVLLTRSLLADTRQLAAQLRDKFPADGDHNLDSLPTLAMSAGALGALQLPGVLTRLRADLLSYLRHVQWLRRAGGSSLKTLEPELGTLQARLDRLLRRLQLLMSRLALPQPPPDPPAPPLAPPSSAWGGIRAAHAILGGLHLTLDWAVRGLLLLKTRL",SOCS3 expression,[6],increased SOCS3 expression
same,colony formation in soft agar,[2],enhanced colony formation
same,colony formation in soft agar,[3],enhanced colony formation
same,SOCS3 expression,[7],increased SOCS3 expression
same,Bmi1 expression in IECs,[8],rapidly induced
same,Socs3 expression in IECs,[8],rapidly induced
